Results taken from patent US20250171437A1 (Agios Pharmaceuticals,Inc., priority 2022, published 2025).

target: T1, human PAH with the R408W mutation (A375 R408W cells) (Homo sapiens, UniProt P00439, R408W); test: Cell Based Phenylalanine Flux Assay; settings: A375 R408W cells; 24 hrs with compound, then 20 μM sepiapterin and 800 μM 13C9,15N-Phenylalanine for 4 hours; 13C-Tyrosine by LC-MS; average where tested multiple times
T1 construct: expressed in transfected cells
T1 sequence (P00439 1-452 R408W): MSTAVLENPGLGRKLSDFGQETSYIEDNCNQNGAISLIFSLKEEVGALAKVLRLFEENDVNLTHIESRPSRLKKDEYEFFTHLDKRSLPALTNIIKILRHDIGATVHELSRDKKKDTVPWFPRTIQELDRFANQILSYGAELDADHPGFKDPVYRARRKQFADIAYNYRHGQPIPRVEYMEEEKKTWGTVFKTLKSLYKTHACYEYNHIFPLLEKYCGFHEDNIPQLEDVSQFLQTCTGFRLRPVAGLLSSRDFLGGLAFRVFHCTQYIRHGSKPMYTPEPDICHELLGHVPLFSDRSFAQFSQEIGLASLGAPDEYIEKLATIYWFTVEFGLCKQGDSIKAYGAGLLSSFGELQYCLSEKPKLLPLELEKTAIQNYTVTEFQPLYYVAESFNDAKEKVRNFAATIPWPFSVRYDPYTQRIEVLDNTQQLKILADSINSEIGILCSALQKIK
In short: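 Phenylalanine-to-tyrosine flux is measured in A375 cells carrying stable human R408W PAH. After 24 h compound exposure, 13C9,15N-Phe (800 μM) with sepiapterin (20 μM) is supplied for 4 h and media 13C-Tyr is read by LC-MS; AC50s are binned.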

Row | SMILES | AC50
1 | O=C(c1oc(-c2ccc(F)cn2)nc1C(F)F)N1CCc2[nH]cnc2[C@@H]1c1nc2cccc(F)c2o1 [Example 631, (R)-(4-(difluoromethyl)-2-(5-fluoropyridin-2-yl)oxazol-5-yl)(4-(7-fluorobenzo[d]oxazol-2-yl)-6,7-dihydro-1H-imidazo[4,5-c]pyridin-5(4H)-yl)methanone] | ≤ 0.5 µM
2 | O=C(c1nnc(-c2ccn(C(F)F)n2)o1)N1CCc2[nH]cnc2[C@@H]1c1nc2c(F)ccc(F)c2o1 [Example 815, (R)-(4-(4,7-difluorobenzo[d]oxazol-2-yl)-6,7-dihydro-1H-imidazo[4,5-c]pyridin-5(4H)-yl)(5-(1-(difluoromethyl)-1H-pyrazol-3-yl)-1,3,4-oxadiazol-2-yl)methanone] | 0.5 to 1 µM
3 | O=C(c1cnco1)N1CCc2[nH]cnc2[C@H]1c1nc2cc(F)cc(F)c2o1 [Example 575, (S)-(4-(5,7-difluorobenzo[d]oxazol-2-yl)-6,7-dihydro-1H-imidazo[4,5-c]pyridin-5(4H)-yl)(oxazol-5-yl)methanone] | 1 to 5 µM
4 | O=C(c1ccnn1C(F)F)N1Cc2[nH]cnc2[C@H]1c1nc2ccccc2o1 [Example 951, (S)-(4-(benzo[d]oxazol-2-yl)-4,6-dihydropyrrolo[3,4-d]imidazol-5(1H)-yl)(1-(difluoromethyl)-1H-pyrazol-5-yl)methanone] | 1 to 5 µM
5 | O=C(c1oc(N2CCOCC2)nc1C(F)F)N1CCc2[nH]cnc2[C@H]1c1nc2cc(F)ccc2o1 [Example 413, (S)-(4-(difluoromethyl)-2-morpholinooxazol-5-yl)(4-(5-fluorobenzo[d]oxazol-2-yl)-6,7-dihydro-1H-imidazo[4,5-c]pyridin-5(4H)-yl)methanone] | 0.5 to 1 µM
6 | COc1cccc2oc([C@@H]3c4nc[nH]c4CCN3C(=O)c3nnc(-c4ccn(C)n4)o3)nc12 [Example 639, (S)-(4-(4-methoxybenzo[d]oxazol-2-yl)-6,7-dihydro-1H-imidazo[4,5-c]pyridin-5(4H)-yl)(5-(1-methyl-1H-pyrazol-3-yl)-1,3,4-oxadiazol-2-yl)methanone] | ≤ 0.5 µM
7 | Cc1cccc2oc([C@H]3c4nc[nH]c4CCN3C(=O)c3cnco3)nc12 [Example 510, (R)-(4-(4-methylbenzo[d]oxazol-2-yl)-6,7-dihydro-1H-imidazo[4,5-c]pyridin-5(4H)-yl)(oxazol-5-yl)methanone] | 1 to 5 µM
8 | O=C(c1ocnc1C(F)F)N1CCc2[nH]cnc2[C@@H]1c1nc2ccccc2o1 [Example 468, (R)-(4-(benzo[d]oxazol-2-yl)-6,7-dihydro-1H-imidazo[4,5-c]pyridin-5(4H)-yl)(4-(difluoromethyl)oxazol-5-yl)methanone] | 0.5 to 1 µM
9 | O=C(c1cnco1)N1CCc2[nH]cnc2[C@H]1c1nc2cccc(F)c2o1 [Example 281, (S)-(4-(7-fluorobenzo[d]oxazol-2-yl)-6,7-dihydro-1H-imidazo[4,5-c]pyridin-5(4H)-yl)(oxazol-5-yl)methanone] | 0.5 to 1 µM
10 | Cc1ccc2oc([C@@H]3c4nc[nH]c4CCN3C(=O)c3oc(-c4ccccn4)nc3C(F)F)nc2c1 [Example 737, (S)-(4-(difluoromethyl)-2-(pyridin-2-yl)oxazol-5-yl)(4-(5-methylbenzo[d]oxazol-2-yl)-6,7-dihydro-1H-imidazo[4,5-c]pyridin-5(4H)-yl)methanone] | ≤ 0.5 µM
11 | Cc1cccc2nc([C@@H]3c4nc[nH]c4CCN3C(=O)c3nnc(-c4ccn(C(F)F)n4)o3)oc12 [Example 860, (S)-(5-(1-(difluoromethyl)-1H-pyrazol-3-yl)-1,3,4-oxadiazol-2-yl)(4-(7-methylbenzo[d]oxazol-2-yl)-6,7-dihydro-1H-imidazo[4,5-c]pyridin-5(4H)-yl)methanone] | 0.5 to 1 µM
12 | COc1cccc2oc([C@H]3c4nc[nH]c4CCN3C(=O)c3nc(C(F)F)nn3C)nc12 [Example 602, (R)-(3-(difluoromethyl)-1-methyl-1H-1,2,4-triazol-5-yl)(4-(4-methoxybenzo[d]oxazol-2-yl)-6,7-dihydro-1H-imidazo[4,5-c]pyridin-5(4H)-yl)methanone] | 0.5 to 1 µM
13 | Cc1cccc2nc([C@H]3c4nc[nH]c4CCN3C(=O)c3cnco3)oc12 [Example 612, (R)-(4-(7-methylbenzo[d]oxazol-2-yl)-6,7-dihydro-1H-imidazo[4,5-c]pyridin-5(4H)-yl)(oxazol-5-yl)methanone] | 1 to 5 µM
14 | Cc1cc(F)cc2nc([C@H]3c4nc[nH]c4CCN3C(=O)c3ocnc3C(F)F)oc12 [Example 658, (R)-(4-(difluoromethyl)oxazol-5-yl)(4-(5-fluoro-7-methylbenzo[d]oxazol-2-yl)-6,7-dihydro-1H-imidazo[4,5-c]pyridin-5(4H)-yl)methanone] | ≤ 0.5 µM

Continued, values first:

Row | AC50 | SMILES
15 | ≤ 0.5 µM | CC(C)(O)c1nc(C(F)F)c(C(=O)N2CCc3[nH]cnc3[C@H]2c2nc3cc(Cl)cc(F)c3o2)o1 [Example 605, (S)-(4-(5-chloro-7-fluorobenzo[d]oxazol-2-yl)-6,7-dihydro-1H-imidazo[4,5-c]pyridin-5(4H)-yl)(4-(difluoromethyl)-2-(2-hydroxypropan-2-yl)oxazol-5-yl)methanone]
16 | 1 to 5 µM | O=C(c1nnc(-c2ccc(C(F)(F)F)cc2)o1)N1CCc2[nH]cnc2[C@@H]1c1nc2cc(F)ccc2o1 [Example 89, (R)-(4-(5-fluorobenzo[d]oxazol-2-yl)-6,7-dihydro-1H-imidazo[4,5-c]pyridin-5(4H)-yl)(5-(4-(trifluoromethyl)phenyl)-1,3,4-oxadiazol-2-yl)methanone]
17 | ≤ 0.5 µM | CC(C)(C#N)c1nc(C(F)F)c(C(=O)N2CCc3[nH]cnc3[C@H]2c2nc3cc(F)ccc3o2)o1 [Example 159, (S)-2-(4-(difluoromethyl)-5-(4-(5-fluorobenzo[d]oxazol-2-yl)-4,5,6,7-tetrahydro-1H-imidazo[4,5-c]pyridine-5-carbonyl)oxazol-2-yl)-2-methylpropanenitrile]
18 | ≤ 0.5 µM | CC(C)(O)c1nc(C(F)(F)F)c(C(=O)N2CCc3[nH]cnc3[C@@H]2c2nc3cc(F)ccc3o2)o1 [Example 46, (R)-(4-(5-fluorobenzo[d]oxazol-2-yl)-6,7-dihydro-1H-imidazo[4,5-c]pyridin-5(4H)-yl)(2-(2-hydroxypropan-2-yl)-4-(trifluoromethyl)oxazol-5-yl)methanone]
19 | ≥ 5 µM | Cc1nc(C(C)(C)O)oc1C(=O)N1CCc2[nH]cnc2[C@@H]1c1nc2c(F)cccc2o1 [Example 260, (R)-(4-(4-fluorobenzo[d]oxazol-2-yl)-6,7-dihydro-1H-imidazo[4,5-c]pyridin-5(4H)-yl)(2-(2-hydroxypropan-2-yl)-4-methyloxazol-5-yl)methanone]
20 | 1 to 5 µM | CC(C)(O)c1nc(C2CC2)c(C(=O)N2CCc3[nH]cnc3[C@@H]2c2nc3cc(F)ccc3o2)o1 [Example 558, (R)-(4-cyclopropyl-2-(2-hydroxypropan-2-yl)oxazol-5-yl)(4-(5-fluorobenzo[d]oxazol-2-yl)-6,7-dihydro-1H-imidazo[4,5-c]pyridin-5(4H)-yl)methanone]
21 | 1 to 5 µM | CNC(C)(C)c1nc(C(F)F)c(C(=O)N2CCc3[nH]cnc3[C@@H]2c2nc3cc(F)ccc3o2)o1 [Example 222, (R)-(4-(difluoromethyl)-2-(2-(methylamino)propan-2-yl)oxazol-5-yl)(4-(5-fluorobenzo[d]oxazol-2-yl)-6,7-dihydro-1H-imidazo[4,5-c]pyridin-5(4H)-yl)methanone]

same assay, conditions: A375 cells expressing R408W PAH; 24 hrs with compound, then 20 μM sepiapterin and 800 μM 13C9,15N-Phenylalanine for 4 hours; 13C-Tyrosine by LC-MS; average where tested multiple times

Row | SMILES | AC50
22 | CC(C)(O)c1nc(C(=O)N2CCc3[nH]cnc3C2c2nc3c(F)cccc3o2)no1 (stereo not shown) | 1 to 5 µM
23 | COc1cccc2nc(C3c4nc[nH]c4CCN3C(=O)c3ccnn3-c3ccccn3)oc12 (stereo not shown) | 1 to 5 µM
24 | O=C(c1cnco1)N1CCc2[nH]cnc2C1c1nc2c(F)c(F)ccc2o1 (stereo not shown) | 1 to 5 µM
25 | O=C(c1cncs1)N1CCc2[nH]cnc2C1c1nc2ccc(Br)cc2o1 (stereo not shown) | ≥ 5 µM
26 | COCCc1ccc2c(C(=O)N3CCc4[nH]cnc4C3c3nc4cc(F)ccc4o3)cnn2c1 (stereo not shown) | 1 to 5 µM
27 | Cn1nc(C(C)(C)O)nc1C(=O)N1CCc2[nH]cnc2C1c1nc2cccc(F)c2o1 (stereo not shown) | ≥ 5 µM
28 | COc1cccc2nc(C3c4nc[nH]c4CCN3C(=O)c3cc(C(C)(C)C)nn3C)oc12 (stereo not shown) | 1 to 5 µM
29 | Cc1cc(-c2nnc(C(=O)N3CCc4[nH]cnc4C3c3nc4cc(F)ccc4o3)o2)nn1C (stereo not shown) | 1 to 5 µM
30 | O=C(c1ccn(CC(F)F)n1)N1CCc2[nH]cnc2C1c1nc2c(F)cccc2o1 (stereo not shown) | 1 to 5 µM

Further lines, results first:

Row | AC50 | SMILES
31 | 1 to 5 µM | Cc1nc(-c2cnn(C)c2)oc1C(=O)N1CCc2[nH]cnc2C1c1nc2cc(F)ccc2o1 (stereo not shown) [listing 1 of 2 here]
32 | ≥ 5 µM | Cc1nc(CN(C)C)oc1C(=O)N1CCc2[nH]cnc2C1c1nc2cc(F)ccc2o1 (stereo not shown)
33 | ≥ 5 µM | Cc1nc(C(C)(C)N(C)C)oc1C(=O)N1CCc2[nH]cnc2C1c1nc2cc(F)ccc2o1 (stereo not shown)
34 | ≥ 5 µM | O=C(c1ccn[nH]1)N1CCc2[nH]cnc2C1c1nc2cc(F)ccc2o1 (stereo not shown)
35 | ≥ 5 µM | Cc1nc(-c2cnn(C)c2)oc1C(=O)N1CCc2[nH]cnc2C1c1nc2cc(F)ccc2o1 (stereo not shown) [listing 2 of 2 here]
36 | 1 to 5 µM | O=C(c1cn[nH]c1Cl)N1CCc2[nH]cnc2C1c1nc2cc(F)ccc2o1 (stereo not shown)
37 | 1 to 5 µM | Cn1nc(C(F)F)nc1C(=O)N1CCc2[nH]cnc2C1c1nc2cc(F)ccc2o1 (stereo not shown)
